Measurements as given in US20230138327A1, “COMPOSITIONS AND METHODS CONTAINING REDUCED NICOTINAMIDE RIBOSIDE FOR PREVENTION AND TREATMENT OF PANCREATIC DISEASES AND CONDITIONS” (SOCIETE DES PRODUITS NESTLE S.A., priority 2020, published 2023).

Experiments:
[1] = system: AML12 hepatocytes; experiment: Intracellular NAD+ levels in AML12 hepatocytes treated with NRH or NR; type: cell-based
Procedure: Even at such relatively low dose, NRH achieved similar increases in intracellular NAD+ levels to those reached with NR at 50-fold higher concentrations.
NRH actions were also extremely fast (FIG. 3), as significant increases in NAD+ levels were observed within 5 minutes after NRH treatment.

[2] = system: INS1-cells; experiment: NAD+ levels in INS1-cells after NRH treatment; type: cell-based
[3] = system: AML12 cells; experiment: Pathway of NRH-induced NAD+ synthesis: intracellular metabolites and pathway inhibitors; type: cell-based
Procedure: FIG. 4. NRH leads to NAD+ biosynthesis through an adenosine kinase dependent path. AML12 cells were treated with an adenosine kinase inhibitor (5-IT; […]) for 1 hour prior to NRH treatment at the doses indicated. Then, 1 hour later, acidic extracts were obtained to measure NAD levels. All values in the figure are expressed as mean+/−SEM of 3 independent experiments. * indicates statistical difference at p<0.05 vs. the respective vehicle treated group.
(§1) Levels of NRH and other NAD-related metabolites in biological samples were obtained by using a cold liquid-liquid extraction using a mixture of methanol:water:chloroform in 5:3:5 (v/v), from which the polar phase was recovered for hydrophilic interaction ultra-high performance liquid chromatography mass spectrometry (UHPLC-MS) analysis. The UHPLC consisted of a binary pump, a cooled autosampler, and a column oven (DIONEX Ultimate 3000 UHPLC+ Focused, Thermo Scientific), connected to a triple quadrupole spectrometer (TSQ Vantage, Thermo Scientific) equipped with a heated electrospray ionisation (H-ESI) source. Of each sample, 2 μL were injected into the analytical column (2.1 mm×150 mm, 5 μm pore size, 200 Å HILICON iHILIC®-Fusion(P)), guarded by a pre-column (2.1 mm×20 mm, 200 Å HILICON iHILIC®-Fusion(P) Guard Kit) operating at 35° C. The mobile phase (10 mM ammonium acetate at pH 9, A, and acetonitrile, B) was pumped at 0.25 mL/min flow rate over a linear gradient of decreasing organic solvent (0.5-16 min, 90-25% B), followed by re-equilibration for a total run time of 30 min. The MS operated in positive mode at 3500 V with multiple reaction monitoring (MRM). The software Xcalibur v4.1.31.9 (Thermo Scientific) was used for instrument control, data acquisition and processing. Retention time and mass detection was confirmed by authentic standards.
A path in which NRH would be converted to NMNH, then to NADH and this would be finally oxidized to NAD+.
In order to understand the exact path by which NRH synthesizes NAD+, we initially evaluated whether NRH, could be transported into the cell by equilibrative nucleoside transporters (ENTs).
The action of NRH was also NAMPT-independent, based on experiments using FK866, a NAMPT inhibitor. If NRH led to NAD+ synthesis via the formation of NMNH, this hypothetical path would require the phosphorylation of NRH into NMNH. Given the essential and rate-limiting role of NRK1 in NR phosphorylation, we wondered whether the ability of NRH to boost NAD+ levels was NRK1 dependent. To answer this question, we evaluated NRH action in primary hepatocytes from either control or NRK1 knockout (NRK1KO) mice. […] Further, they rule out the possibility that NRH-induced NAD+ […] is driven by NRH oxidation into NR.
Considering the molecular structure of NRH, we reasoned that an alternative nucleoside kinase could be responsible for the phosphorylation of NRH. […] The role of AK in NRH-mediated NAD+ synthesis was confirmed using a second, structurally different, AK inhibitor, ABT-702. Metabolomic analyses further confirmed that upon inhibition of AK, the generation of NMNH, NADH and NAD+ was fully blunted, even if NRH was effectively entering the cell.
As a follow-up step, NMNAT enzymes could catalyze the transition from NMNH to NADH. […] Yet, part of the NRH action remained after gallotannin treatment when NRH was used at maximal doses.

[4] = Plasma NRH, NR and NAM in mice after oral administration; type: in vivo
From the text: as §1
Oral administration of NRH led to very similar results to those observed after IP administration. […] NRH was detectable in plasma 1 h after oral administration. In contrast, NR levels were undetectable at 1 h after NR administration.

[5] = Tissue NRH levels in mice after oral gavage (LC-MS); type: in vivo; conditions: oral gavage 250 mg/kg (stable isotope-labelled NRH), 2 hours
Procedure: 8 week-old C57BI/6NTac mice were orally gavaged with either saline (as vehicle), and an stable isotope-labelled NRH (250 mg/kg). After 2 hours, pancreas NRH levels were evaluated. All results are expressed as mean+/−SEM of n=4 mice per group, as areas under the signal by LC-MS analysis, corrected by total protein amount of tissue.
8 week-old C57BI/6NTac mice were orally gavaged with either saline (as vehicle), and NRH (250 mg/kg). After 2 hours, liver, skeletal muscle and kidney NRH levels were evaluated. All results are expressed as mean+/−SEM of n=4 mice per group, as areas under the signal by LC-MS analysis, corrected by total protein amount of tissue.
Levels of NRH and other NAD-related metabolites in biological samples were obtained by using a cold liquid-liquid extraction using a mixture of methanol:water:chloroform in 5:3:5 (v/v), from which the polar phase was recovered for hydrophilic interaction ultra-high performance liquid chromatography mass spectrometry (UHPLC-MS) analysis. The UHPLC consisted of a binary pump, a cooled autosampler, and a column oven (DIONEX Ultimate 3000 UHPLC+ Focused, Thermo Scientific), connected to a triple quadrupole spectrometer (TSQ Vantage, Thermo Scientific) equipped with a heated electrospray ionisation (H-ESI) source. […]

[6] = system: INS-1E cells; experiment: Lipotoxicity (palmitic acid)-induced pancreatic β-cell death, cell viability; type: cell-based; conditions: palmitic acid 0.4 mM, 24 hours, NRH 0.1 mM
Procedure: INS-1E cells were treated with BSA-conjugated palmitic acid (0.4 mM) for 24 hrs in the presence or absence of NRH (0.1 mM). PBS was used as vehicle for NRH, while fatty-acid free BSA was used as control for palmited treatment. After 24 hrs, cell viability was evaluated by luminescence using a commercial kit (Cell Title-Glow; Promega). All results are expressed as mean+/−SEM of n=8 experiments. * indicates P<0.05 vs. the respective vehicle treated group.
INS-1E cells were treated with BSA-conjugated palmitic acid (0.4 mM) for 24 hours in the presence or absence of NRH (0.1 mM). PBS was used as vehicle for NRH, while fatty-acid free BSA was used as control for palmited treatment. After 24 hours, cell viability was evaluated by luminescence using a commercial kit (Cell Title-Glow; Promega).

**Q.** What does the source list for `NC(=O)C1=CN([C@@H]2O[C@H](CO)[C@@H](O)[C@H]2O)C=CC1` [NRH]?
**A.** Ability to increase intracellular NAD+ compared with NR ([1]; AML12 hepatocytes): superior to that of NR; Concentration range of maximal effects on NAD+ synthesis ([1]; AML12 hepatocytes): around the millimolar range; Time after treatment at which significant increases in NAD+ levels were observed ([1]; AML12 hepatocytes (FIG. 3)): ≤ 5 min; Fold higher NR concentration needed for similar increase in intracellular NAD+ as NRH at 10 μM ([1]; AML12 hepatocytes, NRH 10 μM vs NR): 50 fold; Increase of intracellular NAD+ levels at maximal effect ([1]; AML12 hepatocytes, around the millimolar range): more than 10 fold; Concentration at which NAD+ levels are significantly increased ([1]; AML12 hepatocytes, dose-response (FIG. 2)): 10 µM; NAD+ levels [2]: highly elevated; Intracellular detection of NRH and NMNH ([3]; 5 minutes after treatment): could be detected; Increase in intracellular NR and NMN ([3]; after NRH treatment, vs NR treatment): greater than that triggered by NR itself; Capacity as extracellular NAD+ precursor under ENT blockage ([3]; in the presence of S-(4-nitrobenzyl)-6-thioinosine (NBTI)): largely lost its capacity; Generation of NMNH, NADH and NAD+ from NRH upon inhibition of AK ([3]; metabolomic analyses): fully blunted; Dependence of NAD+ increase on NAMPT ([3]; with FK866, a NAMPT inhibitor): NAMPT-independent; NRH concentration in plasma ([4]; mice, after oral gavage): 11.16 ± 1.74 µM; Administered compound in plasma ([4]; mouse, in vivo, po): detectable; NRH levels in pancreas [5]: high levels; Cell viability under BSA-conjugated palmitic acid [6]: protects against lipotoxicity-induced pancreatic β-cell death
